Consider 31 molecules from patent US8962322B2, “Enhancers of induced pluripotent stem cell reprogramming” (City of Hope, priority 2012, dated 2015).

One data set deals with human Oct4 promoter. The experiment in a line: Oct4-luc luciferase reporter assay (stably transfected CV1 cells). The format is cell-based. The settings on record: for induction of Oct4-luc, comparison with known reprogramming enhancers (in words): OAC1 1 μM, BIO 2 μM, BIX 2 μM, AzaC 2 μM, Vc 25 μg/ml, Am580 10 nM, tranylcypromine 5 μM, VPA 0.5 mM, two days; for Oct4-luc Activity / Oct4-luc fold Induction / fold induction at 1 µM: compound at 1 μM, Oct4-luc cells, triplicates. The source says:
A high-throughput screening scheme was designed to identify Oct4 promoter-activating compounds using a luciferase reporter under the control of the human Oct4 promoter (Oct4-luc). […] A stable cell line (Oct4-luc) that expresses luciferase reporter driven by the exogenous Oct4 promoter was established using hygromycin-resistance as a selection marker. These Oct4-luc cells were used for high-throughput screening of a chemical library of 80,000 compounds. The luciferase reporter activity was measured 24 hr after compound treatment. Solvent treatment was included as a negative control.
(§1) Then the promoter sequences were cloned into pGL4.4-luc-Hyg vector (Promega) to get Oct4-luc or Nanog-luc construct and the fidelity of the Oct4 and Nanog promoter DNA sequences was confirmed by bi-directional sequencing. CV 1 cells were transfected with the Oct4-luc or Nanog-luc constructs and the stably-transfected cells were selected by hygromycine resistance.
Compound Screening: The Oct4-luc cells were seeded at 1.75×10^4 cells per well density into 96-well plates. Compounds were added to cells one day after cell seeding at the concentration of 10 μM for 24 hr in the High-Throughput Screening core facility at City of Hope. Compounds that induced luciferase activity 3-fold or more were selected for further validation in both Oct4-luc and Nanog-luc cells.
(§2) Luciferase Reporter Assays: The Oct4-luc or Nanog-luc cells were treated with compound OAC 1 or its structural analogs at 1 μM concentration or at indicated concentrations in triplicates. Other compounds used include 2 μM BIO, 2 μM BIX, 2 μM
(§3) AzaC, 25 μg/ml Vc, 10 nM Am580, 5 μM tranylcypromine, and 0.5 mM VPA. Luciferase reporter assays were performed as described (51) 24 hr after compound treatment or at indicated time points. For Topflash reporter assays, 0.2 μg β-catenin-responsive Topflash reporter gene plasmid was introduced into CV1 cells using trasfection (Bio-Rad). Compounds were added 6 hr after transfection. Luciferase activity was measured 48 hr after compound treatment using the Glo Luciferase Assay System (Promega).

Another data set deals with human Nanog promoter. The data set can be described thus: Nanog-luc luciferase reporter assay (stably transfected CV1 cells). It is filed as cell-based. The conditions noted are these: for induction of Nanog-luc, comparison with known reprogramming enhancers (in words): OAC1 1 μM, BIO 2 μM, BIX 2 μM, AzaC 2 μM, Vc 25 μg/ml, Am580 10 nM, tranylcypromine 5 μM, VPA 0.5 mM, two days; for Nanog-luc fold Induction / fold induction at 1 µM: compound at 1 μM, Nanog-luc cells, triplicates; for fold induction at 1 µM: Chlorocebus aethiops, CV-1. The protocol:
Oct4, Sox2, and Nanog form a positive regulatory loop to regulate the expression of each other, and Nanog is considered a downstream target gene of Oct4 and Sox2 (37). Therefore, activation of Nanog promoter was used as a validation assay for the identified compounds. Specifically, the Oct4 promoter-activating compounds were tested to ascertain whether they activate a human
Nanog promoter-driven luciferase reporter gene using in triplicate luciferase reporter assays.
as §1, §2, §3
For orientation: A reporter such as luciferase makes a cellular process visible.

The mark [1] stands for this setting: Homo sapiens, CV-1, 24 h, read-out: Oct4-luc Activity.
The mark [2] stands for this setting: read-out: Oct4-luc fold Induction.

Read-outs that look alike come from different tables or passages of the source.

Turning to `N[C@@H]1C[C@H]1c1ccccc1` (racemic) [tranylcypromine, reference compound], the “induction of Oct4-luc, comparison with known reprogramming enhancers (in words)” value (shortened to “induction of Oct4-luc, comparison”) in the data set on human Oct4 promoter was “no significant effect”. Moreover, the “induction of Nanog-luc, comparison with known reprogramming enhancers (in words)” value (shortened to “induction of Nanog-luc, comparison”) in the data set with human Nanog promoter was “no significant effect”.

Regarding `CC1(C)CCC(C)(C)c2cc(C(=O)Nc3ccc(C(=O)O)cc3)ccc21` [Am580, reference compound], the “induction of Oct4-luc, comparison” value with human Oct4 promoter is reported as “no significant effect”. Also, in the data set on human Nanog promoter, the “induction of Nanog-luc, comparison” value was “no significant effect”.

For the molecule `COc1cc2nc(N3CCCN(C)CC3)nc(NC3CCN(Cc4ccccc4)CC3)c2cc1OC` [BIX, reference compound], the “induction of Oct4-luc, comparison” value in the data set on human Oct4 promoter was “no significant effect”. In addition, the “induction of Nanog-luc, comparison” value in the data set with human Nanog promoter was “no significant effect”.

Turning to `CN1CCC(c2c[nH]c3ccc(NC(=O)c4ccc(F)cc4)cc23)CC1` [Compound C16], in the data set with human Oct4 promoter, the “Oct4-luc Activity” value is reported as “+ (molecules that induce Oct4-luc less than 1.8-fold were indicated as “+”)” and the “Oct4-luc fold Induction” value is listed as 1.0 fold. Moreover, the “Nanog-luc fold Induction” value in the data set with human Nanog promoter was 1.1 fold.

Consider `Cc1ccc(C(=O)Nc2ccc3[nH]cc(C#N)c3c2)cc1` [Compound C17], for which, in the data set with human Oct4 promoter, the “Oct4-luc Activity” value was “+ (molecules that induce Oct4-luc less than 1.8-fold were indicated as “+”)” and the “Oct4-luc fold Induction” value stood at 1.1 fold. Further, in the data set on human Nanog promoter, the “Nanog-luc fold Induction” value came out at 1.1 fold.

Take `O=C(Nc1ccc2[nH]ncc2c1)c1cccc(F)c1` [Compound C18]: in the data set with human Oct4 promoter, the “Oct4-luc Activity” value is “+ (molecules that induce Oct4-luc less than 1.8-fold were indicated as “+”)” and the “Oct4-luc fold Induction” value is listed as 1.3 fold. For the same molecule, in the data set on human Nanog promoter, the “Nanog-luc fold Induction” value is recorded as 1.2 fold.

With `O=C(Nc1ccc2[nH]ncc2c1)c1cccc(Cl)c1` [Compound C19], in the data set with human Oct4 promoter, the “Oct4-luc Activity” value is given as “+ (molecules that induce Oct4-luc less than 1.8-fold were indicated as “+”)” and the “Oct4-luc fold Induction” value worked out at 1.6 fold. Also, in the data set on human Nanog promoter, the “Nanog-luc fold Induction” value is 1.5 fold.

On to `O=C(Nc1ccc2[nH]ncc2c1)c1cccc(Br)c1` [Compound C20], for which, in the data set with human Oct4 promoter, the “Oct4-luc Activity” value is “+ (molecules that induce Oct4-luc less than 1.8-fold were indicated as “+”)” and the “Oct4-luc fold Induction” value was found to be 1.5 fold. Besides, in the data set on human Nanog promoter, the “Nanog-luc fold Induction” value was determined as 1.1 fold.

As for `O=C(Nc1ccc2[nH]ncc2c1)c1cccc(C(F)(F)F)c1` [Compound C21], in the data set with human Oct4 promoter, the “Oct4-luc Activity” value is given as “+ (molecules that induce Oct4-luc less than 1.8-fold were indicated as “+”)” and the “Oct4-luc fold Induction” value amounted to 1.2 fold. In addition, the “Nanog-luc fold Induction” value in the data set on human Nanog promoter was determined as 1.2 fold.

Regarding `O=C(Nc1ccc2[nH]ncc2c1)c1ccccc1F` [Compound C22], in the data set on human Oct4 promoter, the “Oct4-luc Activity” value is reported as “+ (molecules that induce Oct4-luc less than 1.8-fold were indicated as “+”)” and the “Oct4-luc fold Induction” value stood at 1.5 fold. In addition, in the data set with human Nanog promoter, the “Nanog-luc fold Induction” value is 1.6 fold.

Consider `O=C(Nc1ccc2[nH]ncc2c1)c1ccccc1Cl` [Compound C23], for which, in the data set with human Oct4 promoter, the “Oct4-luc Activity” value was “+ (molecules that induce Oct4-luc less than 1.8-fold were indicated as “+”)” and the “Oct4-luc fold Induction” value was determined as 1.7 fold. Further, the “Nanog-luc fold Induction” value with human Nanog promoter is 1.6 fold.

As for `O=C(Nc1ccc2[nH]ncc2c1)c1ccccc1Br` [Compound C24], in the data set with human Oct4 promoter, the “Oct4-luc Activity” value is given as “+ (molecules that induce Oct4-luc less than 1.8-fold were indicated as “+”)” and the “Oct4-luc fold Induction” value worked out at 1.5 fold. In the data set on human Nanog promoter, the “Nanog-luc fold Induction” value is 1.6 fold.

As for `COc1ccccc1C(=O)Nc1ccc2[nH]ncc2c1` [Compound C25], in the data set with human Oct4 promoter, the “Oct4-luc Activity” value is listed as “+ (molecules that induce Oct4-luc less than 1.8-fold were indicated as “+”)” and the “Oct4-luc fold Induction” value stood at 1.5 fold. The “Nanog-luc fold Induction” value with human Nanog promoter worked out at 1.6 fold.

Consider `CCOc1ccccc1C(=O)Nc1ccc2[nH]ncc2c1` [Compound C26], for which, in the data set on human Oct4 promoter, the “Oct4-luc Activity” value is recorded as “+ (molecules that induce Oct4-luc less than 1.8-fold were indicated as “+”)” and the “Oct4-luc fold Induction” value is listed as 1.2 fold. In addition, the “Nanog-luc fold Induction” value in the data set on human Nanog promoter is on record as 1.2 fold.

As to `COc1cccc(C(=O)Nc2ccc3[nH]ncc3c2)c1OC` [Compound C27], in the data set on human Oct4 promoter, the “Oct4-luc Activity” value is recorded as “+ (molecules that induce Oct4-luc less than 1.8-fold were indicated as “+”)” and the “Oct4-luc fold Induction” value worked out at 1.4 fold. The “Nanog-luc fold Induction” value in the data set with human Nanog promoter was found to be 1.4 fold.

Consider `COc1ccc(C(=O)Nc2ccc3[nH]ncc3c2)c(OC)c1` [Compound C28], for which, in the data set on human Oct4 promoter, the “Oct4-luc Activity” value is “+ (molecules that induce Oct4-luc less than 1.8-fold were indicated as “+”)” and the “Oct4-luc fold Induction” value was 1.4 fold. Also, the “Nanog-luc fold Induction” value with human Nanog promoter turned out to be 1.4 fold.

On to `COc1ccc(C(=O)Nc2ccc3[nH]ncc3c2)cc1OC` [Compound C29], for which, in the data set with human Oct4 promoter, the “Oct4-luc Activity” value is given as “+ (molecules that induce Oct4-luc less than 1.8-fold were indicated as “+”)” and the “Oct4-luc fold Induction” value is listed as 1.1 fold. In addition, the “Nanog-luc fold Induction” value in the data set on human Nanog promoter is on record as 1.1 fold.

Take `CCOc1ccc(C(=O)Nc2ccc3[nH]ncc3c2)cc1OCC` [Compound C30]: in the data set on human Oct4 promoter, the “Oct4-luc Activity” value is “+ (molecules that induce Oct4-luc less than 1.8-fold were indicated as “+”)” and the “Oct4-luc fold Induction” value was 1.0 fold. Moreover, in the data set with human Nanog promoter, the “Nanog-luc fold Induction” value amounted to 1.1 fold.

With `O=C(Nc1ccc2[nH]nnc2c1)c1cccc(Cl)c1` [Compound C31], in the data set with human Oct4 promoter, the “Oct4-luc Activity” value was “+ (molecules that induce Oct4-luc less than 1.8-fold were indicated as “+”)” and the “Oct4-luc fold Induction” value amounted to 1.0 fold. The “Nanog-luc fold Induction” value in the data set on human Nanog promoter turned out to be 1.1 fold.

As to `Cc1nc2cc(NC(=O)c3ccc([N+](=O)[O-])cc3)ccc2[nH]1` [Compound C32], in the data set with human Oct4 promoter, the “Oct4-luc Activity” value is “+ (molecules that induce Oct4-luc less than 1.8-fold were indicated as “+”)” and the “Oct4-luc fold Induction” value turned out to be 1.3 fold. In the data set on human Nanog promoter, the “Nanog-luc fold Induction” value stood at 1.2 fold.

For the molecule `COc1cc(OC)c(C(=O)Nc2ccc3[nH]ncc3c2)cc1OC` [Compound C33], the fold induction at 1 µM in the data set with human Oct4 promoter (setting [1]) is less than 1.8; in the data set on human Oct4 promoter (setting [2]), 1; with human Nanog promoter, 1.1.

On to `COc1ccc(Cl)cc1C(=O)Nc1ccc2[nH]ncc2c1` [Compound C34], for which the values for the fold induction at 1 µM in the data set with human Oct4 promoter (setting [1]), in the data set on human Oct4 promoter (setting [2]) and with human Nanog promoter were less than 1.8, 1.23 and 1.38, respectively.

Take `O=C(Nc1ccc2[nH]ncc2c1)c1cc(F)c(F)cc1Cl` [Compound C35]: the fold induction at 1 µM is less than 1.8 in the data set with human Oct4 promoter (setting [1]), 1.15 in the data set with human Oct4 promoter (setting [2]) and 1.24 with human Nanog promoter.

On to `O=C(Nc1ccc2[nH]ncc2c1)c1c(F)c(F)c(F)c(F)c1F` [Compound C36], for which the fold induction at 1 µM was less than 1.8 in the data set with human Oct4 promoter (setting [1]), 1 in the data set with human Oct4 promoter (setting [2]) and 1.02 in the data set with human Nanog promoter.

For `COc1cc(C(=O)Nc2ccc3[nH]nnc3c2)cc(OC)c1OC` [Compound C37], the fold induction at 1 µM is less than 1.8 in the data set on human Oct4 promoter (setting [1]), 1.05 in the data set with human Oct4 promoter (setting [2]) and 1.08 in the data set with human Nanog promoter.

On to `CC(C)(C)OC(=O)Nc1ccc(C(=O)Nc2ccc3[nH]ncc3c2)cc1` [Compound C38], for which the fold induction at 1 µM was less than 1.8 in the data set with human Oct4 promoter (setting [1]), 1.2 with human Oct4 promoter (setting [2]) and 1.09 in the data set on human Nanog promoter.

On to `Nc1ccc(C(=O)Nc2ccc3[nH]ncc3c2)cc1` [Compound C39], for which the fold induction at 1 µM in the data set with human Oct4 promoter (setting [1]) was less than 1.8; with human Oct4 promoter (setting [2]) it was 1.62; in the data set on human Nanog promoter, 1.55.

Take `CC(C)(C)OC(=O)NCc1ccc(C(=O)Nc2ccc3[nH]ncc3c2)cc1` [Compound C40]: the fold induction at 1 µM with human Oct4 promoter (setting [1]) was less than 1.8; in the data set with human Oct4 promoter (setting [2]), 0.97; with human Nanog promoter, 0.96.

With `NCc1ccc(C(=O)Nc2ccc3[nH]ncc3c2)cc1` [Compound C41], the fold induction at 1 µM in the data set with human Oct4 promoter (setting [1]) is less than 1.8; with human Oct4 promoter (setting [2]), 1.01; in the data set on human Nanog promoter, 1.06.

Regarding `O=C(CCCCC1SCC2NC(=O)NC21)NCc1ccc(C(=O)Nc2ccc3[nH]ncc3c2)cc1` (stereo not drawn) [Compound C42], the values for the fold induction at 1 µM with human Oct4 promoter (setting [1]), in the data set with human Oct4 promoter (setting [2]) and in the data set with human Nanog promoter were less than 1.8, 0.91 and 0.97, respectively.

As to `O=C(Nc1ccc2[nH]ccc2c1)c1ccc(F)cc1` [OAC3, 4-fluoro-N-(1H-indol-5-yl)benzamide], the fold induction at 1 µM is not below 1.8 with human Oct4 promoter (setting [1]), 3.7 in the data set on human Oct4 promoter (setting [2]) and 3.5 with human Nanog promoter.
